Results as given in patent US11299480B2, “2-arylsulfonamido-N-arylacetamide derivatized STAT3 inhibitors” (University of Hawaii, priority 2017, dated 2022).

Columns and labels:
Format in all cases: cell-based, human
Conditions in all cases: MDA-MB-231, 5 μM, 24 h treatment
pJak2 = assay: Stat3-independent signaling, immunoblot of pJak2, MDA-MB-231 cells
Source text: (§1) FIG. 4. Effects of select compounds of the present invention on Stat3-independent signal transduction events. […] Positions of proteins in gel are labeled; control lane (Con) represents whole-cell lysate prepared from 0.05% DMSO-treated cells.
(§2) All antibodies tested were purchased from Cell Signaling Technology.
(§3) Altogether, the new analogs show strong, albeit variable degrees of inhibition of constitutive Stat3 DNA-binding activity and Tyr phosphorylation in human tumor cells.

pSrc = assay: Stat3-independent signaling, immunoblot of pSrc, MDA-MB-231 cells
Source text: as §1, §2, §3

pERK1/2 = assay: Stat3-independent signaling, immunoblot of pERK1/2, MDA-MB-231 cells
Source text: as §1, §2, §3

C[C@H](C(=O)N(Cc1ccc(C2CCCCC2)cc1)c1ccc(C(=O)O)cc1Cl)N(C)S(=O)(=O)c1c(F)c(F)c(F)c(F)c1F [Example 40, (R)-3-chloro-4-(N-(4-cyclohexylbenzyl)-2-((2,3,4,5,6-pentafluoro-N-methylphenyl)sulfonamido)propanamido)benzoic acid]
little effect: effect on pJak2 (pJak2) | effect on pSrc (pSrc) | effect on pERK1/2 (pERK1/2)

Cc1cc(C(=O)O)ccc1N(Cc1ccc(C2CCCCC2)cc1)C(=O)[C@@H](C)N(C)S(=O)(=O)c1c(F)c(F)c(F)c(F)c1F [Example 42, (R)-4-(N-(4-cyclohexylbenzyl)-2-((2,3,4,5,6-pentafluoro-N-methylphenyl)sulfonamido)propanamido)-3-methylbenzoic acid]
little effect: effect on pJak2 (pJak2) | effect on pSrc (pSrc) | effect on pERK1/2 (pERK1/2)
